Measurements: ChEMBL document CHEMBL5625222, “Design, synthesis, and biological evaluation of 1,6-naphthyridine-2-one derivatives as novel FGFR4 inhibitors for the treatment of colorectal cancer” (Eur J Med Chem, 2023)
Calls of active or inactive are those of the source. No cut-off for these calls is given here.

Tests used:
SW480 [1] = assay: Antiproliferative activity against human SW480 cells assessed as inhibition of cell growth incubated for 48 hrs by EdU staining method; type: functional, cell-based
HCT-116 [2] = assay: Antiproliferative activity against human HCT-116 cells assessed as inhibition of cell growth incubated for 48 hrs by EdU staining method; type: functional, cell-based
HCT-116 [3] = assay: Anti-migration activity in human HCT-116 cells assessed as downregulation of FAK phosphorylation by Western blotting analysis; type: functional, cell-based
SW480 [4] = assay: Induction of cell cycle arrest in human SW480 cells assessed as downregulation of CDC2 expression at 1.5 to 6 uM by immunoblotting analysis; type: functional, cell-based; details: dose 1.5-6 µM
BaF3 = assay: Antiproliferative activity against mouse BaF3 transfected with FGFR4 assessed as inhibition of cell growth incubated for 72 hrs by CCK-8 assay; type: toxicity, cell-based; details: BaF3, 72 h
[5] = Toxicity in BALB/c mouse xenografted with human HCT-116 cells assessed as change in serum ALT level at 20 mg/kg,ip administrated for 2 weeks; type: organism-based; details: in vivo, 336 h
HCT-116 [6] = assay: Anti-migration activity in human HCT-116 cells assessed as change in FAK distribution at 3 to 12 uM by immunofluorescence assay; type: functional, cell-based; details: dose 3-12 µM
[7] = Hepatotoxicity in ICR mouse assessed as change in serum ALT level at 20 mg/kg,po administrated for 1 week; type: toxicity, organism-based; details: in vivo, 168 h, time 1 weeks
RKO [8] = assay: Anti-migration activity in human RKO cells assessed as change in FAK distribution at 3 to 12 uM by immunofluorescence assay; type: functional, cell-based; details: dose 3-12 µM
HCT-116 [9] = assay: Antitumor activity against human HCT-116 cells xenografted in BALB/c mouse assessed as downregulation of FAK phosphorylation in tumor at 20 mg/kg,ip administrated for 2 weeks by Western blotting analysis; type: functional, organism-based
HCT-116 [10] = assay: Antitumor activity against human HCT-116 cells xenografted in BALB/c mouse assessed as decrease in FAK expression in tumor tissue at ip administrated for 2 weeks by immunohistochemical analysis; type: functional, organism-based
HCT-116 [11] = assay: Antitumor activity against human HCT-116 cells xenografted in BALB/c mouse assessed as decrease in E-Cad expression in tumor tissue at ip administrated for 2 weeks by immunohistochemical analysis; type: functional, organism-based
HCT-116 [12] = assay: Antitumor activity against human HCT-116 cells xenografted in BALB/c mouse assessed as downregulation of N-cad expression in tumor at 20 mg/kg,ip administrated for 2 weeks by Western blotting analysis; type: functional, organism-based
HCT-116 [13] = assay: Antiproliferative activity against human HCT-116 cells assessed as inhibition of colony formation incubated for 2 weeks by crystal violet staining method; type: functional, cell-based
SW480 [14] = assay: Induction of apoptosis in human SW480 cells assessed as downregulation of ratio of Bcl-2/Bax expression at 3 to 12 uM incubated for 48 hrs by Western blotting analysis; type: functional, cell-based; details: dose 3-12 µM
[15] = Toxicity in BALB/c mouse xenografted with human HCT-116 cells assessed as histopathological change in liver at 10 mg/kg,ip administrated for 2 weeks by hematoxylin and eosin staining based analysis; type: organism-based; details: in vivo, 336 h
RKO [16] = assay: Anti-migration activity in human RKO cells assessed as change in N-cad expression at 3 to 12 uM by Western blotting analysis; type: functional, cell-based; details: dose 3-12 µM
HCT-116 [17] = assay: Anti-migration activity in human HCT-116 cells assessed as change in N-cad expression at 3 to 12 uM by Western blotting analysis; type: functional, cell-based; details: dose 3-12 µM
[18] = Hepatotoxicity in ICR mouse assessed as change in serum creatinine level at 60 mg/kg,po administrated for 1 week; type: toxicity, organism-based; details: in vivo, 168 h, time 1 weeks
[19] = Toxicity in ICR mouse assessed as change in kidney weight at 20 mg/kg,po administrated for 1 week; type: organism-based; details: in vivo, 168 h, time 1 weeks
HCT-116 [20] = assay: Antitumor activity against human HCT-116 cells xenografted in BALB/c mouse assessed as chromatin condensation at 10 mg/kg,ip administrated for 2 weeks by hematoxylin and eosin staining based analysis; type: functional, organism-based
[21] = Toxicity in ICR mouse assessed as change in kidney weight at 60 mg/kg,po administrated for 1 week; type: organism-based; details: in vivo, 168 h, time 1 weeks
[22] = Toxicity in BALB/c mouse xenografted with human HCT-116 cells assessed as change in serum creatinine level at 20 mg/kg,ip administrated for 2 weeks; type: organism-based; details: in vivo, 336 h
SW480 [23] = assay: Anti-migration activity in human SW480 cells assessed as downregulation of FAK phosphorylation by Western blotting analysis; type: functional, cell-based
[24] = Toxicity in ICR mouse assessed as histopathological change in liver at 20 mg/kg,po administrated for 1 week by hematoxylin and eosin staining analysis; type: organism-based; details: in vivo, 168 h, time 1 weeks
[25] = Toxicity in BALB/c mouse xenografted with human HCT-116 cells assessed as change in kidney weight at 10 mg/kg,ip administrated for 2 weeks; type: organism-based; details: in vivo, 336 h
HCT-116 [26] = assay: Antitumor activity against human HCT-116 cells xenografted in BALB/c mouse assessed as decrease in CD68 expression in tumor tissue at ip administrated for 2 weeks by immunohistochemical analysis; type: functional, organism-based
[27] = Toxicity in BALB/c mouse xenografted with human HCT-116 cells assessed as change in spleen weight at 20 mg/kg,ip administrated for 2 weeks; type: organism-based; details: in vivo, 336 h
HCT-116 [28] = assay: Antitumor activity against human HCT-116 cells xenografted in BALB/c mouse assessed as tumor growth inhibition at 20 mg/kg,ip administrated for 2 weeks relative to control; type: functional; details: HCT-116, 336 h, read-out: TGI
HCT-116 [29] = assay: Antitumor activity against human HCT-116 cells xenografted in BALB/c mouse assessed as change in cell morphology at 20 mg/kg,ip administrated for 2 weeks by hematoxylin and eosin staining based analysis; type: functional, organism-based
HCT-116 [30] = assay: Antitumor activity against human HCT-116 cells xenografted in BALB/c mouse assessed as downregulation of FAK expression in tumor at 20 mg/kg,ip administrated for 2 weeks by Western blotting analysis; type: functional, organism-based
HCT-116 [31] = assay: Antitumor activity against human HCT-116 cells xenografted in BALB/c mouse assessed as downregulation of N-cad expression in tumor at 10 mg/kg,ip administrated for 2 weeks by Western blotting analysis; type: functional, organism-based
HCT-116 [32] = assay: Induction of cell cycle arrest in human HCT-116 cells assessed as downregulation of CDC2 expression at 1.5 to 6 uM by immunoblotting analysis; type: functional, cell-based; details: dose 1.5-6 µM
HCT-116 [33] = assay: Anti-migration activity in human HCT-116 cells assessed as upregulation of E-cad expression by Western blotting analysis; type: functional, cell-based
[34] = Toxicity in BALB/c mouse xenografted with human HCT-116 cells assessed as histopathological change in kidney at 10 mg/kg,ip administrated for 2 weeks by hematoxylin and eosin staining based analysis; type: organism-based; details: in vivo, 336 h
[35] = Toxicity in ICR mouse assessed as change in spleen weight at 20 mg/kg,po administrated for 1 week; type: organism-based; details: in vivo, 168 h, time 1 weeks
SW480 [36] = assay: Anti-migration activity in human SW480 cells assessed as change in N-cad expression at 3 to 12 uM by Western blotting analysis; type: functional, cell-based; details: dose 3-12 µM
[37] = Toxicity in BALB/c mouse xenografted with human HCT-116 cells assessed as change in serum AST level at 20 mg/kg,ip administrated for 2 weeks; type: organism-based; details: in vivo, 336 h
[38] = Drug uptake in BALB/c mouse colon at 20 mg/kg,ip administrated for 2 hrs by LC-MS analysis; type: ADME, organism-based; details: in vivo

For `C=CC(=O)NCCCn1c(=O)c(-c2c(Cl)c(OC)cc(OC)c2Cl)cc2cnc(Nc3c(C)cccc3NC(=O)C=C)cc21`, the Activity (SW480 [1]) was “Dose-Dependent Effect”, the Activity (HCT-116 [2]) was “Dose-Dependent Effect” and the Activity (HCT-116 [3]) was “Dose-Dependent Effect”. For the same compound, the Activity (SW480 [4]) was “Active”, the IC50 (BaF3) was 9.48 nM and the Activity [5] was “Non-Toxic”. The Activity (HCT-116 [6]) was “Active”, the Activity [7] was “Non-Toxic” and the Activity (RKO [8]) was “Active”. The Activity (HCT-116 [9]) was “Active”, the Activity (HCT-116 [10]) was “Dose-Dependent Effect” and the Activity (HCT-116 [11]) was “Dose-Dependent Effect”. The Activity (HCT-116 [12]) was “Active”, the Activity (HCT-116 [13]) was “Dose-Dependent Effect” and the Activity (SW480 [14]) was “Active”. The Activity [15] was “Non-Toxic”, the Activity (RKO [16]) was “inactive” and the Activity (HCT-116 [17]) was “inactive”. For the same compound, the Activity [18] was “Non-Toxic”, the Activity [19] was “Non-Toxic” and the Activity (HCT-116 [20]) was “Active”. For the same compound, the Activity [21] was “Non-Toxic”, the Activity [22] was “Non-Toxic” and the Activity (SW480 [23]) was “Dose-Dependent Effect”. For the same compound, the Activity [24] was “Non-Toxic”, the Activity [25] was “Non-Toxic” and the Activity (HCT-116 [26]) was “Dose-Dependent Effect”. The Activity [27] was “Non-Toxic”, the inhibition in vivo at 20 mg/kg (HCT-116 [28]) was 70.5% and the Activity (HCT-116 [29]) was “Active”. For the same compound, the Activity (HCT-116 [30]) was “Active”, the Activity (HCT-116 [31]) was “Active” and the Activity (HCT-116 [32]) was “Active”. For the same compound, the Activity (HCT-116 [33]) was “Dose-Dependent Effect”, the Activity [34] was “Non-Toxic” and the Activity [35] was “Non-Toxic”. For the same compound, the Activity (SW480 [36]) was “inactive”, the Activity [37] was “Non-Toxic” and the Drug uptake [38] was “Active”.
